Laboratory results: patent publication US20240299395A1, “COMBINATION THERAPIES COMPRISING WEE1 INHIBITORS AND DNA DAMAGE RESPONSE (DDR) INHIBITORS” (Recurium IP Holdings, LLC, priority 2021, published 2024)
Where two headings read alike, the source gives them in different places.

Experiments:
Assay type in all cases: cell-based
[1] = tested on: MDA-MB-231 (TNBC) cell line; experiment: CellTiter-Glo (CTG) cell viability, MDA-MB-231; settings: for single agent activity (figure legend): MDA-MB-231, FIGS. 1-2, 72 h
Procedure: (§1) 20,000 MDA-MB-231 cells were incubated in a 96 well plate as a triplicate with 500 nM of ZN-c3 and 10 nM of CHK inhibitor or 700 nM of ATR inhibitor as a single agent or the combination of both for 72 h. 20,000 H23 cells were incubated in a 96 well plate as a triplicate with 150 nM of ZN-c3 and 5 nM of CHK inhibitor or 500 nM of ATR inhibitor as a single agent or the combination of both for 72 h. 10,000 MV4-11 cells were incubated in a 96 well plate as a triplicate with 400 nM of ZN-c3 and 2 nM of CHK inhibitor or 2000 nM of ATM inhibitor as a single agent or the combination of both for 72 h. 20,000 THP-1 cells were incubated in a 96 well plate as a triplicate with 600 nM of ZN-c3 and 4 nM of CHK inhibitor or 1000 nM of ATR inhibitor as a single agent or the combination of both for 72 h. 10,000 HL-60 cells were incubated in a 96 well plate as a triplicate with 750 nM of ZN-c3 and 15 nM of CHK inhibitor or 2000 nM of ATM inhibitor as a single agent or the combination of both for 72 h. 10,000 LNCaP cells were incubated in a 96 well plate as a triplicate with 500 nM of ZN-c3 and 10 nM of CHK inhibitor or 1000 nM of ATM inhibitor as a single agent or the combination of both for 72 h. For each cell line, the cell viability was assessed using a CellTiter-Glo® (CTG) assay.

[2] = tested on: H23 (NSCLC) cell line; experiment: CellTiter-Glo (CTG) cell viability, H23; settings: for single agent activity (figure legend): H23, FIGS. 3-4, 72 h
Procedure: as §1

[3] = tested on: HL-60 (AML) cell line; experiment: CellTiter-Glo (CTG) cell viability, HL-60; settings: for single agent activity (figure legend): HL-60, FIGS. 9-11, 72 h
Procedure: as §1
(§2) 10,000 MV4-11 cells were incubated in a 96 well plate as a triplicate with 2 nM of ZN-d5, 400 nM of ZN-c3 and 2 nM of CHK inhibitor or 2000 nM of ATM inhibitor or 150 nM of ATR inhibitor as a single, double or triple combination for 72 h. 20,000 THP-1 cells were incubated in a 96 well plate as a triplicate with 100 nM of ZN-d5, 600 nM of ZN-c3 and 4 nM of CHK inhibitor or 1000 nM of ATM inhibitor or 1000 nM of ATR inhibitor as a single, double or triple combination for 72 h. 10,000 HL-60 cells were incubated in a 96 well plate as a triplicate with 75 nM of ZN-d5, 750 nM of ZN-c3 and 15 nM of CHK inhibitor or 2000 nM of ATM inhibitor or 1000 nM of ATR inhibitor as a single, double or triple combination for 72 h. For each cell line, the cell viability was assessed using a CellTiter-Glo® (CTG) assay.

[4] = tested on: THP-1 (AML) cell line; experiment: CellTiter-Glo (CTG) cell viability, THP-1; settings: for single agent activity (figure legend): THP-1, FIGS. 7-8, 72 h
Procedure: as §1, §2

[5] = tested on: MV4-11 (AML) cell line; experiment: CellTiter-Glo (CTG) cell viability, MV4-11; settings: for single agent activity (figure legend): MV4-11, FIGS. 5-6, 72 h
Procedure: as §1, §2

[6] = tested on: LNCaP (Prostate) cell line; experiment: CellTiter-Glo (CTG) cell viability, LNCaP; settings: for single agent activity (figure legend): FIGS. 12-13, 72 h
Procedure: as §1

[7] = Table 4, 75 nM ZN-d5, 750 nM ZN-c3, 15 nM CHK inhibitor, 2000 nM ATM inhibitor, 1000 nM ATR inhibitor, single, double or triple combination, 72 h
[8] = Table 4, 100 nM ZN-d5, 600 nM ZN-c3, 4 nM CHK inhibitor, 1000 nM ATM inhibitor, 1000 nM ATR inhibitor, single, double or triple combination, 72 h
[9] = Table 4, 2 nM ZN-d5, 400 nM ZN-c3, 2 nM CHK inhibitor, 2000 nM ATM inhibitor, 150 nM ATR inhibitor, single, double or triple combination, 72 h
[10] = Table 1, 500 nM ZN-c3, 10 nM CHK inhibitor, single agent or combination, 72 h
[11] = Table 1, 150 nM ZN-c3, 5 nM CHK inhibitor, single agent or combination, 72 h
[12] = Homo sapiens, HL-60, 72 h, Table 4, 75 nM ZN-d5, 750 nM ZN-c3, 15 nM CHK inhibitor, 2000 nM ATM inhibitor, 1000 nM ATR inhibitor, single, double or triple combination, 72 h, read-out: HL60 % Inhibition
[13] = Homo sapiens, THP-1, 72 h, Table 4, 100 nM ZN-d5, 600 nM ZN-c3, 4 nM CHK inhibitor, 1000 nM ATM inhibitor, 1000 nM ATR inhibitor, single, double or triple combination, 72 h
[14] = Homo sapiens, MV4-11, 72 h, Table 4, 2 nM ZN-d5, 400 nM ZN-c3, 2 nM CHK inhibitor, 2000 nM ATM inhibitor, 150 nM ATR inhibitor, single, double or triple combination, 72 h

## CNCc1ccc(-c2cc(-c3nc(-c4ccc(S(=O)(=O)C(C)C)cc4)cnc3N)on2)cc1 [ATRi, Berzosertib]
[1]
  single agent activity (figure legend): single agent activity was observed
[1]; Table 2, 500 nM ZN-c3, 700 nM ATR inhibitor, single agent or combination, 72 h
  MDA-MB-231 % Inhibition: 33%
[2]
  single agent activity (figure legend): single agent activity was observed
[2]; Table 2, 150 nM ZN-c3, 500 nM ATR inhibitor, single agent or combination, 72 h
  H23 % Inhibition: 35%
[3]
  single agent activity (figure legend): single agent activity was observed
[3]; Homo sapiens, HL-60, 72 h, Table 2, 750 nM ZN-c3, ATR inhibitor (1000 nM), single agent or combination, 72 h, read-out: HL60 % Inhibition
  inhibition at 1 µM: 15%
[3]; [7]
  HL60 % Inhibition: 15.91%
[4]; Table 2, 600 nM ZN-c3, 1000 nM ATR inhibitor, single agent or combination, 72 h
  THP % Inhibition: 37%
[4]; [8]
  THP % Inhibition: 36.93%
[5]; [9]
  MV4; 11 % Inhibition: 13.99%

## COc1cccc(OCCCN)c1-c1cc(Nc2cnc(C#N)cn2)n[nH]1 [CHKi, Prexasertib]
[1]
  single agent activity (figure legend): single agent activity was observed
[1]; [10]
  MDA-MB-231 % Inhibition: 26%
[2]
  single agent activity (figure legend): practically no activity
[2]; [11]
  H23 % Inhibition: 1%
[3]
  single agent activity (figure legend): no activity
[3]; Table 1, 750 nM ZN-c3, 15 nM CHK inhibitor, single agent or combination, 72 h
  HL60 % Inhibition: 0%
[3]; [7]
  HL60 % Inhibition: 0%
[4]; Table 1, 600 nM ZN-c3, 4 nM CHK inhibitor, single agent or combination, 72 h
  THP % Inhibition: 32%
[4]; [8]
  THP % Inhibition: 32.29%
[5]
  single agent activity (figure legend): no activity
[5]; Table 1, 400 nM ZN-c3, 2 nM CHK inhibitor, single agent or combination, 72 h
  MV4; 11 % Inhibition: 0%
[5]; [9]
  MV4; 11 % Inhibition: 0%
[6]; LNCaP
  single agent activity (figure legend): single agent activity was observed
[6]; [10]
  LNCaP % Inhibition: 14%

## CN(C)CCCOc1ccc(-c2ccc3ncc4c(c3c2)n(C2CCOCC2)c(=O)n4C)cn1 [ATMi, AZD0156]
[3]
  single agent activity (figure legend): practically no activity
[3]; Table 3, 750 nM ZN-c3, 2000 nM ATM inhibitor, single agent or combination, 72 h
  HL60 % Inhibition: 3%
[3]; [7]
  HL60 % Inhibition: 2.95%
[4]
  single agent activity (figure legend): single agent activity was observed
[4]; [8]
  THP % Inhibition: 19.52%
[5]
  single agent activity (figure legend): single agent activity was observed
[5]; Table 3, 400 nM ZN-c3, 2000 nM ATM inhibitor, single agent or combination, 72 h
  MV4; 11 % Inhibition: 18%
[5]; [9]
  MV4; 11 % Inhibition: 18.48%
[6]; LNCaP
  single agent activity (figure legend): single agent activity was observed
[6]; Table 3, 500 nM ZN-c3, 1000 nM ATM inhibitor, single agent or combination, 72 h
  LNCaP % Inhibition: 14%

## CC1(C)CCC(CN2CCN(c3ccc(C(=O)NS(=O)(=O)c4ccc(NC[C@H]5CC[C@](C)(O)CC5)c([N+](=O)[O-])c4)c(Oc4cnc5[nH]ccc5c4)c3)CC2)=C(C23CC(C(F)F)(C2)C3)C1 [ZN-d5, 2-((1H-pyrrolo[2,3-b]pyridin-5-yl)oxy)-4-(4-((2-(3-(difluoromethyl)bicyclo[1.1.1]pentan-1-yl)-4,4-dimethylcyclohex-1-en-1-yl)methyl)piperazin-1-yl)-N-((4-((((1r,4r)-4-hydroxy-4-methylcyclohexyl)methyl)amino)-3-nitrophenyl)sulfonyl)benzamide]
[3]; [12]
  inhibition at 0.075 µM: 37.6%
[4]; [13]
  inhibition at 0.1 µM: 2.6%
[5]; [14]
  inhibition at 0.002 µM: 8.44%

## C=CCn1c(=O)c2cnc(Nc3ccc(N4CCN(C)CC4)cc3)nc2n1-c1ccc2c(n1)[C@@](O)(CC)CC2 [ZN-c3]
[1]; Homo sapiens, MDA-MB-231, Table 1, 500 nM ZN-c3, 10 nM CHK inhibitor, single agent or combination, 72 h
  inhibition at 0.5 µM: 35%
[1]
  single agent activity (figure legend): single agent activity was observed
[2]
  single agent activity (figure legend): single agent activity was observed
[2]; [11]
  inhibition at 0.15 µM: 22%
[3]
  single agent activity (figure legend): single agent activity was observed
[3]; Homo sapiens, HL-60, 72 h, Table 1, 750 nM ZN-c3, 15 nM CHK inhibitor, single agent or combination, 72 h, read-out: HL60 % Inhibition
  inhibition at 0.75 µM: 25%
[3]; Homo sapiens, HL-60, 72 h, Table 3, 750 nM ZN-c3, 2000 nM ATM inhibitor, single agent or combination, 72 h, read-out: HL60 % Inhibition
  inhibition at 0.75 µM: 25%
[3]; [12]
  inhibition at 0.75 µM: 25.5%
[4]; Homo sapiens, THP-1, 72 h, Table 1, 600 nM ZN-c3, 4 nM CHK inhibitor, single agent or combination, 72 h
  inhibition at 0.6 µM: 18%
[4]; Homo sapiens, THP-1, 72 h, Table 2, 600 nM ZN-c3, 1000 nM ATR inhibitor, single agent or combination, 72 h
  inhibition at 0.6 µM: 18%
[4]; [13]
  inhibition at 0.6 µM: 18.1%
[4]
  single agent activity (figure legend): single agent activity was observed
[5]; Homo sapiens, MV4-11, 72 h, Table 1, 400 nM ZN-c3, 2 nM CHK inhibitor, single agent or combination, 72 h
  inhibition at 0.4 µM: 49%
[5]; Homo sapiens, MV4-11, 72 h, Table 3, 400 nM ZN-c3, 2000 nM ATM inhibitor, single agent or combination, 72 h
  inhibition at 0.4 µM: 49%
[5]; [14]
  inhibition at 0.4 µM: 49.2%
[5]
  single agent activity (figure legend): single agent activity was observed
[6]; Homo sapiens, LNCaP, Table 1, 500 nM ZN-c3, 10 nM CHK inhibitor, single agent or combination, 72 h
  inhibition at 0.5 µM: 24%
[6]; LNCaP
  single agent activity (figure legend): single agent activity was observed
